Measured values as given in patent US20230278995A1, “1,3,4-OXADIAZOLE DERIVATIVE COMPOUNDS AS HISTONE DEACETYLASE 6 INHIBITOR, AND THE PHARMACEUTICAL COMPOSITION COMPRISING THE SAME” (CHONG KUN DANG PHARMACEUTICAL CORP., priority 2020, published 2023).
pIC50: −log10 of the molar value.

Assays:
[1] = biological target: T1, human recombinant HDAC1 (Homo sapiens, UniProt Q13547); assay: HDAC enzyme activity inhibition assay (HDAC Fluorimetric Drug Discovery Kit), HDAC1; type: biochemical; conditions: human recombinant HDAC1, Fluor de Lys-SIRT1 substrate, 30° C. 60 minutes
T1 construct: purchased Enzo Life Sciences, Inc. BML-SE456
Protocol: (§1) For the HDAC1 enzyme activity test, human recombinant HDAC1 (BML-SE456) was used as an enzyme source and Fluor de Lys©-SIRT1 (BNL-K1177) was used as a substrate. After dispensing 5-fold diluted compounds into a 96-well plate, 0.3 μg of enzyme and 10 μM substrate were added to each well of the plate and allowed to react at 30° C. for 60 minutes. Next, Fluor de Lys© Developer II (BML-K1176) was added and reacted for 30 minutes to complete the reaction, and then the fluorescence values (Ex 360, Em 460) were measured using a multi-plate reader (Flexstation 3, Molecular Device). The HDAC6 enzymes were tested using human recombinant HDAC6 (382180) from Calbiochem Inc., according to the same protocol as the HDAC1 enzyme activity test method. With respect to the final result values, respective IC50 values were calculated using GraphPad Prism 4.0 program (Table 2).

[2] = biological target: T2, human recombinant HDAC6 (Homo sapiens, UniProt Q9UBN7); assay: HDAC enzyme activity inhibition assay (HDAC Fluorimetric Drug Discovery Kit), HDAC6; type: biochemical; conditions: for HDAC6 selectivity (fold): HDAC1 vs HDAC6; for pIC50: human recombinant HDAC6, same protocol as HDAC1
T2 construct: purchased Calbiochem Inc. 382180
T2 sequence (Q9UBN7 1-1215): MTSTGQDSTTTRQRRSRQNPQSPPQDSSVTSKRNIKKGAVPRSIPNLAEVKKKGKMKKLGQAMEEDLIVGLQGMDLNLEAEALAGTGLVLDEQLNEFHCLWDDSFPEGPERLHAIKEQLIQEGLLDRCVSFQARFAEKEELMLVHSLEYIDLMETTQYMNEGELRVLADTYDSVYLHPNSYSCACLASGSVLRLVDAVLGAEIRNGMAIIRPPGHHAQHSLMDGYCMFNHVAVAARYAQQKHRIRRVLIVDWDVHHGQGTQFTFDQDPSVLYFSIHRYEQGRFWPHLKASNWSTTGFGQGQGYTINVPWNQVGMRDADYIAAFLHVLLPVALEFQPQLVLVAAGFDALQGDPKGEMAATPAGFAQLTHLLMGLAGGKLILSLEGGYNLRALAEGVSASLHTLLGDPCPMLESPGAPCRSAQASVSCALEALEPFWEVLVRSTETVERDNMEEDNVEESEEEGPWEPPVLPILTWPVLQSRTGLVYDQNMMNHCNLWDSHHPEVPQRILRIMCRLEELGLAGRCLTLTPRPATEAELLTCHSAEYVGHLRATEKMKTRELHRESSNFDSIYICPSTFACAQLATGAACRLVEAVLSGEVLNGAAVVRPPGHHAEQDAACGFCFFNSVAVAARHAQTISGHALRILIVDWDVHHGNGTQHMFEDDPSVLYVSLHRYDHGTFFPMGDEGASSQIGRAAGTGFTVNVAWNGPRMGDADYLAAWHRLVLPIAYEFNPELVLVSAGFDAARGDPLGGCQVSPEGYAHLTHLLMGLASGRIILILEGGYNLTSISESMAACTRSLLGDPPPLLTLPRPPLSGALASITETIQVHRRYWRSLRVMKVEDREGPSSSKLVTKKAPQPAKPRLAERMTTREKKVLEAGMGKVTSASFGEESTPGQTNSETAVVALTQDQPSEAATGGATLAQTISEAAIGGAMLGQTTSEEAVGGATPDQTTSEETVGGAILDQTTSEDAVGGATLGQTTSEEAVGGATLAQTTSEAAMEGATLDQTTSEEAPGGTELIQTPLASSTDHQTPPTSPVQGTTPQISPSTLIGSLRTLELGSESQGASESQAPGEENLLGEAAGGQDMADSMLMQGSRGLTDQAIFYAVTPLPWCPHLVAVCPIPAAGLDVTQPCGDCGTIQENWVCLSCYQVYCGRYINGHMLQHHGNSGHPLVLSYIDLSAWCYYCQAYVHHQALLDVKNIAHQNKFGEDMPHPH
Protocol: as §1

T1 sequence (Q13547 whole entry): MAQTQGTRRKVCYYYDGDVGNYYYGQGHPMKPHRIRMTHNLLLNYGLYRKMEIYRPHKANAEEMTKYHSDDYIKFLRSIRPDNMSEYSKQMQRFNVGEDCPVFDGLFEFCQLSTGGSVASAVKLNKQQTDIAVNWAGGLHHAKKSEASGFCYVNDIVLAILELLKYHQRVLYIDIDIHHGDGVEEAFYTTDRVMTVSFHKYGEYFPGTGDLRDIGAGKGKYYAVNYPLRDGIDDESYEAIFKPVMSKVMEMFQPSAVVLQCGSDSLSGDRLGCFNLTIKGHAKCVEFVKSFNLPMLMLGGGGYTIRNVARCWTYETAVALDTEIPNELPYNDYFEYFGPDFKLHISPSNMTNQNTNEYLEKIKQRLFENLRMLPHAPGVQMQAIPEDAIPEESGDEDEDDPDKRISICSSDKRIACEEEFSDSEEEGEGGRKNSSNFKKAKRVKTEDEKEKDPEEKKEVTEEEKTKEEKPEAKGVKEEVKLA

pIC50 [1]	HDAC6 selectivity (fold) [2]	pIC50 [2]	Compound
< 4.30	1,524 fold	7.48	CC(C)CN1CCC(N2CC(F)(C(=O)N(Cc3ccc(-c4nnc(C(F)F)o4)cn3)c3ccccc3)C2)CC1 [Compound 3114, N-((5-(5-(difluoromethyl)-1,3,4-oxadiazol-2-yl)pyridin-2-yl)methyl)-3-fluoro-1-(1-isobutylpiperidin-4-yl)-N-phenylazetidine-3-carboxamide]
< 4.30	1,326 fold	7.42	CC(C)CC(=O)N1CC(F)(C(=O)N(Cc2ccc(-c3nnc(C(F)F)o3)cn2)c2ccccc2)C1 [Compound 3155, N-((5-(5-(difluoromethyl)-1,3,4-oxadiazol-2-yl)pyridin-2-yl)methyl)-3-fluoro-1-(3-methylbutanoyl)-N-phenylazetidine-3-carboxamide]
< 4.30	1,059 fold	7.33	CCCN1CC(N2CC(F)(C(=O)N(Cc3ccc(-c4nnc(C(F)F)o4)cn3)c3ccccc3)C2)C1 [Compound 3107, N-((5-(5-(difluoromethyl)-1,3,4-oxadiazol-2-yl)pyridin-2-yl)methyl)-3-fluoro-N-phenyl-1′-propyl-[1,3′-biazetidine]-3-carboxamide]
< 4.30	2,272 fold	7.66	O=C(N(Cc1ccc(-c2nnc(C(F)F)o2)cn1)c1ccccc1)C1(F)CN(C2CCSCC2)C1 [Compound 3162, N-((5-(5-(difluoromethyl)-1,3,4-oxadiazol-2-yl)pyridin-2-yl)methyl)-3-fluoro-N-phenyl-1-(tetrahydro-2H-thiopyran-4-yl)azetidine-3-carboxamide]
< 4.30	1,054 fold	7.32	CC(C)N1CC(F)(C(=O)N(Cc2ccc(-c3nnc(C(F)F)o3)cn2)c2ccccc2)C1 [Compound 2974, N-((5-(5-(difluoromethyl)-1,3,4-oxadiazol-2-yl)pyridin-2-yl)methyl)-3-fluoro-1-isopropyl-N-phenylazetidine-3-carboxamide]
< 4.30	2,906 fold	7.76	O=C(C1CCC1)N1CC(F)(C(=O)N(Cc2ccc(-c3nnc(C(F)F)o3)cn2)c2cccc(F)c2)C1 [Compound 3168, 1-(cyclobutanecarbonyl)-N-((5-(5-(difluoromethyl)-1,3,4-oxadiazol-2-yl)pyridin-2-yl)methyl)-3-fluoro-N-(3-fluorophenyl)azetidine-3-carboxamide]
< 4.30	1,992 fold	7.60	CN(C)CCCC(=O)N1CC(F)(C(=O)N(Cc2ccc(-c3nnc(C(F)F)o3)cn2)c2cccc(F)c2)C1 [Compound 3098, N-((5-(5-(difluoromethyl)-1,3,4-oxadiazol-2-yl)pyridin-2-yl)methyl)-1-(4-(dimethylamino)butanoyl)-3-fluoro-N-(3-fluorophenyl)azetidine-3-carboxamide]
< 4.30	1,022 fold	7.31	O=C(N(Cc1ccc(-c2nnc(C(F)F)o2)cn1)c1ccccc1)C1(F)CN(C2CCC2)C1 [Compound 2975, 1-cyclobutyl-N-((5-(5-(difluoromethyl)-1,3,4-oxadiazol-2-yl)pyridin-2-yl)methyl)-3-fluoro-N-phenylazetidine-3-carboxamide]
< 4.30	967 fold	7.29	CCN1CCC(F)(C(=O)N(Cc2ccc(-c3nnc(C(F)F)o3)cn2)c2cccc(F)c2)CC1 [Compound 3443, N-((5-(5-(difluoromethyl)-1,3,4-oxadiazol-2-yl)pyridin-2-yl)methyl)-1-ethyl-4-fluoro N-(3-fluorophenyl)piperidine-4-carboxamide]
< 4.30	1,497 fold	7.48	O=C(N(Cc1ccc(-c2nnc(C(F)F)o2)cn1)c1cccc(F)c1)C1(F)CN(C2CCN(C3CCCCC3)CC2)C1 [Compound 3409, 1-(1-cyclohexylpiperidin-4-yl)-N-((5-(5-(difluoromethyl)-1,3,4-oxadiazol-2-yl)pyridin-2-yl)methyl)-3-fluoro-N-(3-fluorophenyl)azetidine-3-carboxamide]
< 4.30	740 fold	7.17	O=C(N(Cc1ccc(-c2nnc(C(F)F)o2)cn1)c1cccc(F)c1)C1(F)CCN(C2CCC2)CC1 [Compound 2971, 1-cyclobutyl-N-((5-(5-(difluoromethyl)-1,3,4-oxadiazol-2-yl)pyridin-2-yl)methyl)-4-fluoro-N-(3-fluorophenyl)piperidine-4-carboxamide]
< 4.30	668 fold	7.13	O=C(N(Cc1ccc(-c2nnc(C(F)F)o2)cn1)c1cccc(F)c1)C1(F)CN(C2CCCCC2)C1 [Compound 3053, 1-cyclohexyl-N-((5-(5-(difluoromethyl)-1,3,4-oxadiazol-2-yl)pyridin-2-yl)methyl)-3-fluoro-N-(3-fluorophenyl)azetidine-3-carboxamide]
< 4.30	464 fold	6.97	O=C(N(Cc1ccc(-c2nnc(C(F)F)o2)cc1F)c1ccccc1)C1(F)CCN(C2COC2)CC1 [Compound 2869, N-(4-(5-(difluoromethyl)-1,3,4-oxadiazol-2-yl)-2-fluorobenzyl)-4-fluoro-1-(oxetan-3-yl)-N-phenylpiperidine-4-carboxamide]
< 4.30	1,506 fold	7.48	CCCC(=O)N1CC(F)(C(=O)N(Cc2ccc(-c3nnc(C(F)F)o3)cn2)c2ccccc2)C1 [Compound 3154, 1-butyryl-N-((5-(5-(difluoromethyl)-1,3,4-oxadiazol-2-yl)pyridin-2-yl)methyl)-3-fluoro-N-phenylazetidine-3-carboxamide]
< 4.30	2,066 fold	7.62	O=C(C1CCCCC1)N1CC(F)(C(=O)N(Cc2ccc(-c3nnc(C(F)F)o3)cn2)c2cccc(F)c2)C1 [Compound 3170, 1-(cyclohexanecarbonyl)-N-((5-(5-(difluoromethyl)-1,3,4-oxadiazol-2-yl)pyridin-2-yl)methyl)-3-fluoro-N-(3-fluorophenyl)azetidine-3-carboxamide]
< 4.30	801 fold	7.20	O=C(N(Cc1ccc(-c2nnc(C(F)F)o2)cn1)c1ccccc1)C1(F)CN(C2CCCCC2)C1 [Compound 2999, 1-cyclohexyl-N-((5-(5-(difluoromethyl)-1,3,4-oxadiazol-2-yl)pyridin-2-yl)methyl)-3-fluoro-N-phenylazetidine-3-carboxamide]
< 4.70	149 fold	6.87	CN1CCC(F)(C(=O)N(Cc2ccc(-c3nnc(C(F)F)o3)cc2F)c2ccccc2)CC1 [Compound 2866, N-(4-(5-(difluoromethyl)-1,3,4-oxadiazol-2-yl)-2-fluorobenzyl)-4-fluoro-1-methyl-N-phenylpiperidine-4-carboxamide]
< 4.30	1,827 fold	7.56	CCCCN1CC(N2CC(F)(C(=O)N(Cc3ccc(-c4nnc(C(F)F)o4)cn3)c3ccccc3)C2)C1 [Compound 3108, 1′-butyl-N-((5-(5-(difluoromethyl)-1,3,4-oxadiazol-2-yl)pyridin-2-yl)methyl)-3-fluoro-N-phenyl-[1,3′-biazetidine]-3-carboxamide]
